Source: PMC3018327 (Nature immunology, 2010)

What was measured:
HLA-DM = HLA-DM (Homo sapiens, UniProt P28067+P28068, N110D/N191D); assay: SPR; conditions: complexes 5 μM injected 2 min, pH 5.35, 15 μl/min, 25 °C, Fig. 4d-f
DM-DR2 complex = assay: SPR peptide-induced dissociation of the complex of DM and empty DR2; type: binding, human; conditions: SPR stage 3, peptide 1 μM, pH 5.35, 30 °C; Fig. 1e
DR1 linked to DM = conditions: leucine zipper dimerization domains attached to DMβ and DRβ chains; cited from earlier work
DR1 = conditions: cited from earlier work
DR4 = conditions: cited from earlier work

HLA-DM, sequence (P28067 27-233 N191D): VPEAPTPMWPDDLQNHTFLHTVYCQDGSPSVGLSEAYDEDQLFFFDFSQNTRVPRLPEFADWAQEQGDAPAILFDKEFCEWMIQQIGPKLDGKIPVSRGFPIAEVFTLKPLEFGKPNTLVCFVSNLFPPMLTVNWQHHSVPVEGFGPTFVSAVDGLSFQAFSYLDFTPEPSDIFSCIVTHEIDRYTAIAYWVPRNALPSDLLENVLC
HLA-DM, sequence (P28068 19-218 N110D): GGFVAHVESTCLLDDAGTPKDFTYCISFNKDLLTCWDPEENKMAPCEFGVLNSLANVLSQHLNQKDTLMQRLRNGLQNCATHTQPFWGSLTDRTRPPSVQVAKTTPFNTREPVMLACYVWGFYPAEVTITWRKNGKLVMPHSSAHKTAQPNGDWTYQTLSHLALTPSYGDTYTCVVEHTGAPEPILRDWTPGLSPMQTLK

Substance	DM binding of DR1 complexes with disulfide-linked HA6 or HA3 peptides (HLA-DM)	further results
CQNTLKLAT [HA3 P3 P11]	appeared to slow DM binding	
MBP85-99: high-affinity peptide from myelin basic protein (amino acids 85–99) (PGSRPHLIRLFSRDA; UniProt P02686 85-99, looked up, fragment)		peptide-induced dissociation of DR2 from DM (DM-DR2 complex): induced dissociation of DR2 from DM
Me-YVCQNTLKLAT [HA3 P1me–P11]	did not permit DM binding	
PKAVKQNCLKLAT [HA6 P1A]	only low amounts of DM binding	
PVSKMRMATPLLMQA [CLIP]		t1/2 of peptide dissociation from DR1 forcibly linked to DM (DR1 linked to DM): 10 s; affinity of CLIP for DR1 (DR1): high affinity; affinity of CLIP for DR4 (DR4): very low affinity
VCQNTLKLAT [HA3 P2–P11]	rapid binding	

More lines, main results first:

DM binding of DR1 complexes with disulfide-linked HA6 or HA3 peptides (HLA-DM)	Substance	further results
not sufficient for DM binding	KYVKQNCLKLAT [HA6 P-1–P11]	
strong DM binding	VKQNCLKLAT [HA6 P2–P11]	
not sufficient for DM binding	YVKQNCLKLAT [HA6 P1–P11]	
